Earlier results as cited in patent publication US20110130383A1, “Use of Ion Channel Modulators in the Prophylaxis and Treatment of Inflammatory and Immunological Diseases” (LECTUS THERAPEUTICS LIMITED, priority 2006, published 2011).

Experiments:
[1] = target: Kv1.3 channels (Homo sapiens, UniProt P22001); details: inhibition of Kv1.3 channels versus cardiac Kv1.5 channels
[2] = rats, 28-day, administered by gavage; tissues including those reported to express Kv1.3 channels

Kv1.3 channels, sequence (P22001 whole entry): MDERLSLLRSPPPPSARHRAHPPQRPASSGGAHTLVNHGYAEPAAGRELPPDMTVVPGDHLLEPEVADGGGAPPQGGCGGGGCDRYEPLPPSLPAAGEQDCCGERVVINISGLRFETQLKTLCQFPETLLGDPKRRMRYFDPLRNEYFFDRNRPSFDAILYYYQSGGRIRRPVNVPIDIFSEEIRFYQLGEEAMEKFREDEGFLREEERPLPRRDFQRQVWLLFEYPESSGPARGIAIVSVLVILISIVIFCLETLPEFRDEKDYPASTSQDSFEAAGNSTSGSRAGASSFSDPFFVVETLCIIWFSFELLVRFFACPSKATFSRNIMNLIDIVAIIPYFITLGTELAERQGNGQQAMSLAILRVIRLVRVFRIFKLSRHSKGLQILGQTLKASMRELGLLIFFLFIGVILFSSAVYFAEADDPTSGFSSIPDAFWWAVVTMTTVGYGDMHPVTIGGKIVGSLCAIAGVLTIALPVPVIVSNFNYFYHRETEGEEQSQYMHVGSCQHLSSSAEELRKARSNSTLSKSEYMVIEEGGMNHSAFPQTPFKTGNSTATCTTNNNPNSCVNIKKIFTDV

- selectivity over cardiac Kv1.5 channels [1]: 23 fold
SMILES: O=c1ccc2c(OCCCCOc3ccccc3)c3ccoc3cc2o1 [PAP-1]
- histopathological changes in tissues examined [2]: failed to induce any histopathological changes
